Data taken from paper PMC3898987 (Bioorganic & Medicinal Chemistry, 2013).
Residue numbers refer to the chain shown, from its start.

Key:
[1] = molecular target: T1, 5-HT3AB receptor, 5-HT3B subunit I183A (Homo sapiens, UniProt O95264+P46098, I176A); assay: FlexStation membrane potential dye functional assay, HEK293 cells; conditions: 5-HT concentration-response, 5-HT3AB with 5-HT3B I183A
T1 sequence (P46098 24-478): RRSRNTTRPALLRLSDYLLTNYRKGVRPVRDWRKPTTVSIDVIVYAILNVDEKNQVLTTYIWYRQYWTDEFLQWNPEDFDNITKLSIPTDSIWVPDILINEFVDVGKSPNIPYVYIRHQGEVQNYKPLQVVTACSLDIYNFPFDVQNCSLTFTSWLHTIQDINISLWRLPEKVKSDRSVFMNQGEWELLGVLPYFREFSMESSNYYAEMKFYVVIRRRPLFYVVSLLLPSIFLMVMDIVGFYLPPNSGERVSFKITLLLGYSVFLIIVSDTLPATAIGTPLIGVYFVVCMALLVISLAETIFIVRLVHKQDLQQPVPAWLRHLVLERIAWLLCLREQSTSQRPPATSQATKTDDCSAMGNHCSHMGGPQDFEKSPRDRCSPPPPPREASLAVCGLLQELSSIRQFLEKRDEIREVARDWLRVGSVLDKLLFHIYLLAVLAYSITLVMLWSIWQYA
T1 sequence (O95264 22-441 I176A): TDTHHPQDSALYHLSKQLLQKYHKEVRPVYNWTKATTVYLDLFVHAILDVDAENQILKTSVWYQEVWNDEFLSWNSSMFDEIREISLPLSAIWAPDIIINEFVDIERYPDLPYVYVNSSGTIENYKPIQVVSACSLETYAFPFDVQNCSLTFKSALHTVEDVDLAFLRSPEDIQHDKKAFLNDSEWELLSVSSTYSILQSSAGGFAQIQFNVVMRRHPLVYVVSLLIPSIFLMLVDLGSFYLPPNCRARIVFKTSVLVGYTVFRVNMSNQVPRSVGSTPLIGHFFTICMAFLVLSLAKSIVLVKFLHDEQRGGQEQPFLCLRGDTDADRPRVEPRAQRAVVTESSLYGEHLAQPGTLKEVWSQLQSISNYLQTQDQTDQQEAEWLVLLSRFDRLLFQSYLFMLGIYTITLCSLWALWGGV
Method: For FlexStation assays, transfected cells were plated on 96-well plates and incubated 1–2 days before assay.
Fluorometric studies were undertaken using a FlexStation® (Molecular Devices, Sunnyvale, CA, USA) as previously described.[11]
Fluorescence was measured every 2 s for 200 s. […] Concentration–response and inhibition curves were obtained for each mutant, and the fluorescence values were normalized to the maximal response.

[2] = molecular target: T2, 5-HT3AB receptor, 5-HT3B subunit H73A (Homo sapiens, UniProt O95264+P46098, H66A); assay: radioligand saturation binding, transfected HEK293 membranes; conditions: [3H]-palonosetron saturation, 5-HT3AB with 5-HT3B H73A, 4 °C, 24 h
T2 sequence (P46098 24-478): T1 sequence (P46098 24-478)
T2 sequence (O95264 22-441 H66A): T1 sequence (O95264 22-441 I176A) with H45A, A155I
Method: (§1) Human embryonic kidney (HEK) 293 cells were cultured on 90 mm tissue culture plates at 37 °C and 7% CO2 in a humidified atmosphere. They were grown in DMEM:F12 (Dulbecco’s Modified Eagle’s Medium/Nutrient Mix F12 (1:1)) with GlutaMAX I™ containing 10% fetal calf serum and passaged when confluent. For radioligand binding studies, cells in 90 mm dishes were transfected at 60–70% confluency using polyethyleneimine and incubated for 3–4 days before use. For FlexStation assays, transfected cells were plated on 96-well plates and incubated 1–2 days before assay. […]
(§2) Eight-point binding assays were performed to produce saturation binding curves. […] Radioactive counts were measured using a Beckman LS6000SC liquid scintillation counter (Fullerton, California, USA).
(§3) Data were analyzed by iterative curve fitting using GraphPad Prism v5 (San Diego, CA) according to the following equation: B=Bmax[L]^n/kdn+[L]^n where B is the amount of bound radioligand, Bmax is the maximum specific binding at equilibrium, [L] is the concentration of radioligand, Kd is the equilibrium dissociation constant of the radioligand, and n is the Hill coefficient.

5-HT3A receptor F130A = molecular target: T3, 5-HT3A receptor F130A (Homo sapiens, UniProt P46098, F125A); assay: as above; conditions: [3H]-palonosetron saturation, 5-HT3A F130A, 4 °C, 24 h
T3 sequence (P46098 24-478 F125A): T1 sequence (P46098 24-478) with F102A
Method: as §1, §2, §3

5-HT3A receptor W90C = molecular target: T4, 5-HT3A receptor W90C (Homo sapiens, UniProt P46098, W85C); assay: as above; conditions: [3H]-palonosetron saturation, 5-HT3A W90C, 4 °C, 24 h, NB = no binding
T4 sequence (P46098 24-478 W85C): T1 sequence (P46098 24-478) with W62C
Method: as §1, §2, §3

| SMILES | Hill Coefficient [1] | Kd [2] [nM] | Kd (5-HT3A receptor F130A) [nM] | Kd (5-HT3A receptor W90C) [nM] | Kd (5-HT3A receptor W90C; listed as [^3H]palonosetron) |
| --- | --- | --- | --- | --- | --- |
| NCCc1c[nH]c2ccc(O)cc12 [5-HT, serotonin] | 1.2 ± 0.2 |  |  |  |  |
| O=C1c2cccc3c2[C@H](CCC3)CN1[C@@H]1CN2CCC1CC2 [Palonosetron] |  | 0.14 ± 0.02 | 0.67 ± 0.12 | > 2 | no saturable, specific binding |
